Experimental data taken from ChEMBL document CHEMBL1201862, “PubChem BioAssay data set” (2004).
Calls of active or inactive are those of the source.

Key:
[1] = molecular target: Glyceraldehyde-3-phosphate dehydrogenase (Homo sapiens, UniProt P04406)
[2] = HEK-293T cell viability reduction – luminescence, B-cell screen hits, cytotoxicity control for BCR NF-kB inhibitor project, dose response (AID 489021); format: functional, cell-based;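 note: HEK-293T cells carrying an NF-kB luciferase reporter; cells exposed to compound for about 14 hours before viability readout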
[3] = molecular target: T1, Calpain-2 catalytic subunit (Sus scrofa, UniProt P43367); assay: m-calpain protease blockers, concentration series – biochemical, fluorogenic peptide substrate, dose response (AID 1420); format: functional
T1 sequence (P43367 whole entry): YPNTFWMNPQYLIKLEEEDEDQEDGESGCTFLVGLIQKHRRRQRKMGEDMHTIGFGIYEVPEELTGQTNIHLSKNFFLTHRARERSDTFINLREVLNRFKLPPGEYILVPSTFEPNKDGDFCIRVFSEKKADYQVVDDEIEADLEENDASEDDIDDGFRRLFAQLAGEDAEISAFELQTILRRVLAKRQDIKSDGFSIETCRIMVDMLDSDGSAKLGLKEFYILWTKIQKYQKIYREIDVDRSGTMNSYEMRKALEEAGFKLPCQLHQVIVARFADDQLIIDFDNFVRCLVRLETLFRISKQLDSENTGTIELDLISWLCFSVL

[4] = blockers of HIV-1 envelope-mediated cell-cell fusion – cherry-pick, dose response (AID 652057); format: functional, cell-based
[5] = blockers of HIV-1 ZM109 envelope-driven cell-cell fusion – HeLa effector, CEM target cells, luciferase, cherry-pick, dose response (AID 652058); format: functional, cell-based;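 note: luciferase signal from HIV-1 Env mediated cell-cell fusion of effector and target cells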
[6] = off-target signal loss in HeLa-CEM21 co-culture – HeLa F-luc CTL cells, cherry-picked, counter-screen for HIV-1 Env fusion inhibitor project, dose response (AID 652040); format: functional, cell-based;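 note: potency for signal decrease marking cytotoxic or nonspecific inhibition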
[7] = HIV-1 AD8 envelope cell-cell fusion blockers – cherry-pick, dose response (AID 652062); format: functional, cell-based;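 note: luciferase signal from cell-cell fusion driven by HIV-1 clade B AD8 Env; potency is for inhibitors of fusion seen as a drop in luminescence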
BJ [8] = assay: BJ-TERT fibroblast viability loss – cell-based, RAS-independent, luminescence, dose response (AID 1933); format: functional; details: Homo sapiens
BJ [9] = assay: cells; format: functional, cell-based; details: Homo sapiens
BJ [10] = assay: BJ-TERT-LT-ST fibroblast viability loss – cell-based, RAS-independent, luminescence, dose response (AID 1935); format: functional; details: Homo sapiens;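 note: BJ fibroblasts immortalized with TERT plus LT and ST oncogenes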
[11] = DRD fibroblast viability loss – cell-based, non-viral oncogenic, luminescence, dose response (AID 1934); format: functional; details: Homo sapiens
[12] = molecular target: T2, Heat shock factor protein 1 (Mus musculus, UniProt P38532); assay: enhancement of HSF1-driven luciferase signal – cell-based, NIH3T3, luminescence, dose retest, confirmation (AID 435004); format: functional;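 note: stress induced by proteasome inhibitor MG132 added 30 min after compound; luciferase reporter driven by HSF1 response element in NIH3T3 cells; actives raise luminescence as potentiators of the MG132 stress response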
T2 sequence (P38532 whole entry): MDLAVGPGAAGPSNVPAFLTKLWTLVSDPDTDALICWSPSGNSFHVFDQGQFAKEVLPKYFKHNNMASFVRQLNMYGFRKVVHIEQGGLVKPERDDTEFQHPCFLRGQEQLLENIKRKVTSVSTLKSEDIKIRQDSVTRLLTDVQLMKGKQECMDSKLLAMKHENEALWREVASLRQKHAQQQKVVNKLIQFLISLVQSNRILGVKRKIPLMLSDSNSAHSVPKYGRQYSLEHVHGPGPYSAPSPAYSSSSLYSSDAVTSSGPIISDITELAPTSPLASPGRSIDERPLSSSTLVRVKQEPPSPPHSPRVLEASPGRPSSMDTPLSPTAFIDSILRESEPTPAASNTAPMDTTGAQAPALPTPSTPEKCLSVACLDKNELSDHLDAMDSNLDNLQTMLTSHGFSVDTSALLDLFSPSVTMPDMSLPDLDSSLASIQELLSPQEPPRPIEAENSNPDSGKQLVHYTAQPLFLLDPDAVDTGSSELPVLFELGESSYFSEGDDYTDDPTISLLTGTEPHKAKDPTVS

[13] = molecular target: T3, High affinity choline transporter 1 (Homo sapiens, UniProt Q9GZV3); assay: human choline transporter blockers, potency – cell-based, 5-point CRC, membrane potential dye, dose response (AID 504840); format: functional
T3 sequence (Q9GZV3 whole entry): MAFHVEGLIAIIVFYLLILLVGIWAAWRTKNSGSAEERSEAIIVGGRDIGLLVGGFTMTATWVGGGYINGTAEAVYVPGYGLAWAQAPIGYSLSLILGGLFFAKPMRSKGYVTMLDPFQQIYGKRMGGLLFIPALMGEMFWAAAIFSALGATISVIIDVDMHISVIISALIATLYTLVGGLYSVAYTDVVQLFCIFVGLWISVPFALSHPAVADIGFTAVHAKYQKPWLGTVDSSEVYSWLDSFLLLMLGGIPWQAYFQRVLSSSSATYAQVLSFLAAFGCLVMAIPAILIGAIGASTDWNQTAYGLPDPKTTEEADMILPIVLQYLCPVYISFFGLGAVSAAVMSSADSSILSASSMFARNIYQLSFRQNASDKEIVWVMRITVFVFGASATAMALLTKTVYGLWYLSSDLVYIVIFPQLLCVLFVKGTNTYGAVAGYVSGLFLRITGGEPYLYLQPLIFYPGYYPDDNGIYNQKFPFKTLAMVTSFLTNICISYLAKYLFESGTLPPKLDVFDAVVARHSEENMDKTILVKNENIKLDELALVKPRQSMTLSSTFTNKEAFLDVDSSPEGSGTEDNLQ

[14] = molecular target: T4, Corticotropin-releasing factor receptor 2/Corticotropin-releasing factor-binding protein (Homo sapiens, UniProt P24387+Q13324); assay: activators of CRF receptor 2 with binding protein – uHTS hits, confirmation (AID 602473); format: functional; details: read-out: EC50_Mean
T4 sequence (Q13324 whole entry): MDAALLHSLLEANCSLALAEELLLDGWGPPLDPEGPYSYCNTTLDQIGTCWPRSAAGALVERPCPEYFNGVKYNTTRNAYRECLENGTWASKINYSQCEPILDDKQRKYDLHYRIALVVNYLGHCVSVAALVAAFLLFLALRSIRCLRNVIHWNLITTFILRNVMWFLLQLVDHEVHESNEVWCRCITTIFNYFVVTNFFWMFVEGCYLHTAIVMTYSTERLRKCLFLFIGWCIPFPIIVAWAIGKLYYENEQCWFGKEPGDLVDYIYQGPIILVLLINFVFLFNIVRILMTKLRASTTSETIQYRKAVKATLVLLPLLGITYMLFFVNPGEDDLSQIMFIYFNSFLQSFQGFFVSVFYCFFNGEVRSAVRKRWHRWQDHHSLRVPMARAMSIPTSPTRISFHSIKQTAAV
T4 sequence (P24387 whole entry): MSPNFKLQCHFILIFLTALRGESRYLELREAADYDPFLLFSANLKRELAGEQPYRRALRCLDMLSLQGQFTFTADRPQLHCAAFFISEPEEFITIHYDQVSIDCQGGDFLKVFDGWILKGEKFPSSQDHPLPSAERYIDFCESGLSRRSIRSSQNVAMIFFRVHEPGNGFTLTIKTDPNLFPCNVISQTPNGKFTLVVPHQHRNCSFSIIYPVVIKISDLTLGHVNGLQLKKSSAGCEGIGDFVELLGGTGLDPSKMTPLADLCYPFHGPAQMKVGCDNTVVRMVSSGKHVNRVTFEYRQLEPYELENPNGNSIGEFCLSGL

[15] = molecular target: T5, Ubiquitin-conjugating enzyme E2 N (Homo sapiens, UniProt P61088); format: functional;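 note: Dose-response confirmation in a TR-FRET assay detecting UBC13-driven polyubiquitin chain formation, inhibition measured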
T5 sequence (P61088 whole entry): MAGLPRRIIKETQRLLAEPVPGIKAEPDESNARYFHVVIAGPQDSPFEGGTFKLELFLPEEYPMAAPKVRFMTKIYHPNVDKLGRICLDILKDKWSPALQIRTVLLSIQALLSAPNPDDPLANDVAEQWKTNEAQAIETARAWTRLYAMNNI

H9c2 = assay: cells; format: functional, cell-based; details: Rattus norvegicus, H9c2, Myocardium;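 note: confirmatory concentration-response retest of ultra-high-throughput screening hits for modulation of myocardial damage; cell death induced by hydrogen peroxide oxidative stress; compound pretreatment for 60 min then peroxide exposure for 2 h; potency is for protecting the cells against peroxide damage rather than for killing them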
P388/ADR = assay: cells; format: functional; details: Mus musculus
SN12K1 = assay: cells; format: functional; details: Homo sapiens
P388 = assay: cells; format: functional; details: Mus musculus
[16] = P. falciparum Dd2 growth inhibitors, dose response, SYBR Green, cherry-picked samples (AID 1159567); format: functional, cell-based
INS1 = assay: INS-1E survival protection against cytokine death – cell-based, luminescence, retest, dose response (AID 449756); format: functional; details: Rattus norvegicus;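 note: cell death triggered by IL-1 beta plus TNF-alpha plus IFN-gamma mixture; protective hits raise ATP signal compared with cytokine alone wells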

Glyceraldehyde-3-phosphate dehydrogenase, sequence (P04406 whole entry): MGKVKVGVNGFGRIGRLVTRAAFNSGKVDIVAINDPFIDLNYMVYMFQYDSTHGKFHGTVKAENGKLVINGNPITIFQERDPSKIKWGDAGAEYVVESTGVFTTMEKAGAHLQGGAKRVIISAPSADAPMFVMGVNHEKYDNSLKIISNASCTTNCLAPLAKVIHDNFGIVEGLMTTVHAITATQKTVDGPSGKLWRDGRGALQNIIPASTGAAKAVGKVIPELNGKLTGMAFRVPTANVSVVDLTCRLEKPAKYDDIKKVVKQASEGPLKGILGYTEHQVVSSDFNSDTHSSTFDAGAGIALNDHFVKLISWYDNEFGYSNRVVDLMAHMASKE

In the case of `Cc1cccc(N2C(=O)C(Cl)=C(N3CCN(c4ncccn4)CC3)C2=O)c1`, the IC50 [1] is reported as > 50 µM (inconclusive).

For `O=C(CCCN1C(=O)/C(=C/c2ccccc2Cl)SC1=S)NNC(=O)c1ccncc1`, the IC50 [2] was > 80 µM (inactive).

For `Nc1c(Cl)cc2c(c1Oc1ccccc1)C(=O)c1ccccc1C2=O`, the IC50 [3] was 2.46 µM (not active), the AC50 [4] was 11.2 µM (active) and the AC50 [5] was 14.3 µM (active). The AC50 [6] was 11.2 µM (active) and the AC50 [7] was 16.4 µM (active).

For `Cc1nn(C(C)(C)C)c(OC(=O)c2ccc(Br)o2)c1Sc1ccccc1`, the IC50 [2] was > 80 µM (inactive).

In the case of `CC(C)Nc1nc(Cl)nc(N(C#N)CN2C(=O)c3ccccc3C2=O)n1`, the EC50 (BJ [8]) is reported as 10.1 µM (active), the EC50 (BJ [9]) is reported as 16.2 µM (active) and the EC50 (BJ [10]) is reported as > 150 µM (inconclusive). For the same compound, the EC50 [11] was 17.9 µM (active), the EC50 [12] was 27.9 µM (active) and the IC50 [13] was 1.58 µM (active).

With `CS(=O)(=O)N(Cc1ccc(Cl)cc1)c1ccc(C(=O)NCCSc2ccccn2)cc1` the EC50 [14] was > 53 µM (inactive), the AC50 [4] was 5.5 µM (active) and the AC50 [5] was 52.2 µM (active). For the same compound, the AC50 [6] was 18.6 µM (active) and the AC50 [7] was 6.23 µM (active).

In the case of `C[C@@H]1CN(C2=C(Cl)C(=O)N(c3cccc(C(F)(F)F)c3)C2=O)CCN1`, the IC50 [1] is reported as > 50 µM (inconclusive).

For `O=C(NCC1CCN(Cc2ccc(F)cc2)CC1)C1CCCN(c2ncnc3c2nc2n3CCCCC2)C1` (stereo unspecified), the IC50 [15] was > 20 µM (inactive).

With `COc1ccc(NC(=O)c2cc(-c3ccccn3)nc3ccccc23)cc1S(=O)(=O)N(C)C` the IC50 [2] was > 80 µM (inactive) and the IC50 (H9c2) was > 79 µM (inactive).

In the case of `C[C@@]12C(=O)N(Cc3ccc(F)cc3)CC(=O)N1[C@H]1c3cc(Cl)ccc3OC[C@@H]1[C@@H]2c1ccccc1`, the AC50 [4] is reported as 5.93 µM (active), the AC50 [5] is reported as 8.91 µM (active) and the AC50 [6] is reported as 7.95 µM (active).

With `COCCn1nnnc1CN(CCc1ccccc1)Cc1cc2cc(OC)ccc2nc1O` the IC50 (H9c2) was 16.1 µM (active), the AC50 [4] was 5.69 µM (active) and the AC50 [5] was 5.58 µM (active). For the same compound, the AC50 [6] was 26.9 µM (active) and the AC50 [7] was 1.48 µM (active).

For `CN(C)CCNC(=O)c1cccc2nc(-c3ccccc3)oc12`, the GI50 (P388/ADR) was 8.63 µM (inactive), the GI50 (SN12K1) was 22.8 µM (inactive) and the GI50 (P388) was 4.34 µM (inactive).

With `COc1ccc(/C=N\NC(=O)c2c(C)nc3ccc(Br)cn23)cc1` the EC50 (BJ [8]) was 3.13 µM (active), the EC50 (BJ [9]) was 2.71 µM (active) and the EC50 (BJ [10]) was 2.67 µM (inconclusive). For the same compound, the EC50 [11] was 2.9 µM (inconclusive) and the IC50 (H9c2) was 12.1 µM (active).

With `Cc1ccc(C(=O)Nc2ncn(C3CC(O)C(CO)O3)c(=O)n2)cc1` (stereo unspecified) the GI50 (P388/ADR) was 3.69 µM (inactive), the GI50 (SN12K1) was > 100 µM (inactive) and the GI50 (P388) was 5.26 µM (inactive).

For `CC1(C)CC2(CC(C)(C)N1O)NC(=O)OC2=O`, the GI50 (P388/ADR) was 4.47 µM (inactive), the GI50 (SN12K1) was > 100 µM (inactive) and the GI50 (P388) was 60.7 µM (inactive).

In the case of `CC[C@@]1(O)C[C@H](OC2CC(N(C)C)C(OC3CC(O)C(OC4CC(O)C(O)C(C)O4)C(C)O3)C(C)O2)c2c(cc3c(c2O)C(=O)c2c(O)ccc(O)c2C3=O)[C@H]1C(=O)OC` (stereo partly specified), the GI50 (P388/ADR) is reported as 0.713 µM (active), the GI50 (SN12K1) is reported as 0.00695 µM (active) and the GI50 (P388) is reported as 0.00693 µM (active).

For `CC(=O)OC1CC2(O)C(CCC3(C)C(c4ccc(=O)oc4)CCC32O)C2(C)CCC(O)C=C12` (stereo unspecified), the GI50 (P388/ADR) was 7.26 µM (inactive), the GI50 (SN12K1) was 0.0196 µM (active) and the GI50 (P388) was 4.37 µM (inactive).

With `COc1ccccc1/C=N/N1C(=O)C(CC(=O)Nc2ccc([N+](=O)[O-])cc2OC)S/C1=N\c1cccc(C)c1C` (stereo unspecified) the EC50 (BJ [8]) was 10.6 µM (active), the EC50 (BJ [9]) was 22.9 µM (active) and the EC50 (BJ [10]) was 14.9 µM (inconclusive). The EC50 [11] was 4.24 µM (active).

With `CC(C)(O)C#Cc1cccc(-c2nc(C(=O)N[C@@H]3CCN(Cc4ccccc4)C3)cc3c2[C@H](CCO)N([S+]([O-])C(C)(C)C)C3)c1` (stereo partly specified) the AC50 [16] was 5.86 µM (active).

For `N=c1c2c(n(Cc3ccc(Cl)cc3Cl)c3c1CCC3)CCCC2`, the IC50 [2] was > 80 µM (inactive) and the AC50 (INS1) was 3.58 µM (active).

For `CN(CO)c1nc(N(C)CO)nc(N(C)CO)n1` [TRIMELAMOL], the GI50 (P388/ADR) was 16.3 µM (inactive), the GI50 (SN12K1) was 4.98 µM (inactive) and the GI50 (P388) was 6.15 µM (inactive).
